Reference: patent publication US20040029130A1, “Drug screening systems and assays” (priority 2000, published 2004)
Entries after “also recorded” stand apart in the source; their conditions may differ. Each block holds one molecule with its values, some of them ahead of it.

Key:
[1] = system: non-homologous end-joining (NHEJ) of DNA by PC-C (Ku70/80, DNA-PKcs, XRCC4, DNA ligase IV); experiment: DNA end-joining (NHEJ) complementation assay with HeLa fraction PC-C; assay type: biochemical, human; settings: for ability to stimulate DNA end-joining (NHEJ) by PC-C: FIG. 4C, 6A, 8; for concentration that saturates the NHEJ system / Kd: components derived from humans; for Kd: crude estimate, read-out: estimate of the Kd in the NHEJ system; for stimulation of NHEJ by PC-C relative to IP6: FIG. 8
Procedure: Fraction PC-C was dialyzed for 2 hours against L buffer (20 mM Tris-HCl pH 8.0, 25 mM KOAc, 0.5 mM EDTA, 10% glycerol, 1 mM DTT) and stored at −80° C.
End joining reactions (10 μl) were carried out in 50 mM HEPES pH 8.0, 40 mM KOAc, 0.5 mM Mg(OAc)2, 1 mM ATP, 1 mM DTT, 0.1 mg/ml BSA, contained 2-3 μl (3-5 μg) of PC-C and HindIII-linearized 5′-^32P-labeled pDEA7Z DNA (10 ng). Incubation was for 1 hour at 37° C. ^32P-labeled DNA products were deproteinized and analyzed by electrophoresis through 0.6% agarose gels followed by autoradiography. Quantification of joining efficiency was carried out by phosphorimaging and the data are presented as (% total ends-joinedsample)−(% total ends-joinedPC-C) unless otherwise stated. For assays of inositol phosphates, aqueous solutions were added directly to the end-joining reactions. For the screening of column fractions; 0.5-1 μl of diluted (in L buffer) or undiluted column fractions were added

Ku 70/80 heterodimer = molecular target: T1, Ku 70/80 heterodimer (Homo sapiens, UniProt P12956+P13010); experiment: Gel filtration binding and competition analysis with purified Ku 70/80; settings: for binding by Ku 70/80 heterodimer: gel filtration, FIG. 10-12; for loss in 3H-IP6 binding by Ku (competition): one molar equivalent of competitor
T1 construct: made in house
T1 sequence (P12956 whole entry): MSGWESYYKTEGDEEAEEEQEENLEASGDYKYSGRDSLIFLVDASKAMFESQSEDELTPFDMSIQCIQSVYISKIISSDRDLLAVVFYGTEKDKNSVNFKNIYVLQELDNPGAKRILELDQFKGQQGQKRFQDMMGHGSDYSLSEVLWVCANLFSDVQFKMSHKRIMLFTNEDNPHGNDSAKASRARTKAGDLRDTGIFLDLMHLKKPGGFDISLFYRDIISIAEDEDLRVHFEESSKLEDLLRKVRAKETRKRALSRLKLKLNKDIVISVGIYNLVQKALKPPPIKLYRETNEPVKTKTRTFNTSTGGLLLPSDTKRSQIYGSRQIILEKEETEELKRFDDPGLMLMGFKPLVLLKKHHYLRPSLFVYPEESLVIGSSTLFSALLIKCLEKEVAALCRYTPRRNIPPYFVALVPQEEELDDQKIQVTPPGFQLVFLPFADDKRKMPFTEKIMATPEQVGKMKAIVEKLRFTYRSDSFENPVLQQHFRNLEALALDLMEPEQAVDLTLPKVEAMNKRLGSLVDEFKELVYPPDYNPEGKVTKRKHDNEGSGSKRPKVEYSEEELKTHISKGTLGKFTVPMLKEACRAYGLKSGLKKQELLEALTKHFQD
T1 sequence (P13010 whole entry): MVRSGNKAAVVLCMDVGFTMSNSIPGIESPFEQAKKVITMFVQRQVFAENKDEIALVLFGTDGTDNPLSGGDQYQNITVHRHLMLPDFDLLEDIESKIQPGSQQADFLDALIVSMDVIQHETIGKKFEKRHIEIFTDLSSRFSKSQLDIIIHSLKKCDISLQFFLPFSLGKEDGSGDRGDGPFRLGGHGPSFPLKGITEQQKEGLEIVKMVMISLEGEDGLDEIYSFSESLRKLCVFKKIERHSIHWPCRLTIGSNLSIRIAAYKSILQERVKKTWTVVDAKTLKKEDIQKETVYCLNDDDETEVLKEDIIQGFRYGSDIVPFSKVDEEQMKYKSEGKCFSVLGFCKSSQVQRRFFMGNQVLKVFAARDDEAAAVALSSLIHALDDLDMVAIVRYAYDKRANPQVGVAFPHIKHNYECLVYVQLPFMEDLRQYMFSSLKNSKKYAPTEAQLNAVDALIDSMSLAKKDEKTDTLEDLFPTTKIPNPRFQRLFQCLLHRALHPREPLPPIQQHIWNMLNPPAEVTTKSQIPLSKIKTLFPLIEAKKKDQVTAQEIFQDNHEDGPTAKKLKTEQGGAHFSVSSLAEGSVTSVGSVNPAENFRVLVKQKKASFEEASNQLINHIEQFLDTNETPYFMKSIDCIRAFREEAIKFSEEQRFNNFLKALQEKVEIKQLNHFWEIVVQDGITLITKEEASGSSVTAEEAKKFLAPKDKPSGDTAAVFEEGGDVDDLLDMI
Procedure: (§1) Superdex 200 gel filtration, 50 μl fractions, scint. counting 20 μl/fraction 100 nM ^3H-IP6, 100 nM Ku, 100 nM DNA ([…]), 100 nM PKcs. Running buffer. 50 mM HEPES, pH 8.0, 40 mM KOAc, 10% Glycerol, 0.1 M KCl, 1 mM DTT.
(§2) Ku 70/80 and DNA-PKcs were purified to homogeneity and used to examine the binding of IP6 by DNA-PK ^3H-IP6 was used in these binding experiments and the curves presented in FIG. 10 represent the distribution of ^3H-IP6 along a gel filtration column under various conditions. ^3H-IP6 observed in a peak below 17 kD represents unbound ^3H-IP6. In the presence of purified Ku 70/80 (±DNA-PKcs) ^3H-IP6 elutes early from the column near the 150 MW point. […] It is believed that DNA-PK assembles on DNA and that in the absence of DNA that Ku and DNA-PKcs, are separate in solution. The addition of DNA to the Ku-^3H-IP6 complex results in a shift in the elution profile from the gel filtration column—the peak is broader (possibly owing to the mobility of the DNA) and has an earlier start point. […] Finally, the addition of DNA-PKcs, to the Ku-IP6DNA complex results in an additional increase in mobility along the gel filtration column. The species appears very large—near 670 kD—which is consistent with it containing Ku 70/80, ^3H-IP6, DNA-PKcs and DNA.
The specificity of IP6 binding by Ku was examined by competition analysis (FIG. 13) using IP3, IP6 and IP7. […] These findings may be extended to postulate that while IP6 is bound by Ku, that the stimulatory effect of IP6 on NHEJ probably results from additional interactions that may be regulated by formation of the IP6-Ku complex.

T4 DNA ligase = molecular target: T2, T4 DNA ligase (Enterobacteria phage T4, UniProt P00970); experiment: T4 DNA ligation assay; assay type: biochemical; settings: 2 μM IP6, T4 DNA ligase 0.1 u/μl, FIG. 6B
T2 construct: purchased NEB
T2 sequence (P00970 1-487): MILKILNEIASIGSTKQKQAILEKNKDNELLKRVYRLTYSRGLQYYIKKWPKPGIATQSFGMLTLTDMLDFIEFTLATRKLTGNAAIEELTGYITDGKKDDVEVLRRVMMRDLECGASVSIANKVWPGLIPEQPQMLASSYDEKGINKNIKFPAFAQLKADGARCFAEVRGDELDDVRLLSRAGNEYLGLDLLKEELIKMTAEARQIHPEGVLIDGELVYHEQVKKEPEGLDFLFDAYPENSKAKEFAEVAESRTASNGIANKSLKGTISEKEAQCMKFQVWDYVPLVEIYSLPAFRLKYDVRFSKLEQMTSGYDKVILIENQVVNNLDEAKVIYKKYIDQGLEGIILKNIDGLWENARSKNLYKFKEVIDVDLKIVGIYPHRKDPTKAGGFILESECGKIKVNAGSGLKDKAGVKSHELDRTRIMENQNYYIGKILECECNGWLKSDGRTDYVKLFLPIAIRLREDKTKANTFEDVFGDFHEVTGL
Procedure: Reactions (10 μl) containing T4 DNA ligase (NEB) were carried out in 1×T4 DNA ligase buffer (NEB) at 25° C. in the presence and absence of inositol phosphates. Reactions were stopped, deproteinized and the products analyzed by agarose gel electrophoresis.

skin cancer development = settings: mice, given orally; cited from earlier work
DNA-PKcs = molecular target: T3, DNA-PKcs (Homo sapiens, UniProt P78527); experiment: Gel filtration binding with purified DNA-PKcs; settings: absence of DNA, FIG. 10-11
T3 construct: made in house
Procedure: as §1, §2

DNA-PK = molecular target: T4, DNA-PK (Homo sapiens, UniProt P12956+P13010); experiment: Gel filtration analysis of 3H-inositol phosphate binding by DNA-PK; settings: for binding by DNA-PK: gel filtration, 100 nM 3H-ligand, FIG. 7
T4 construct: purchased Promega
Procedure: Binding reactions (55 μl) were carried out in 25 mM HEPES pH 7.5, 50 mM KCl, 10 mM MgCl2, 1 mM DTT, 10% glycerol, 0.1% NP-40 with 5000 units of DNA-PK (Promega) or 1.8 mg/ml of protein size standards for gel filtration (BioRad) and 100 nM ^3H-IP6 or ^3H-IP3 at 4° C. for 30 min. Complexes were resolved on a Superose 12 PC3.2/30 column run in 50 mM HEPES pH 8.0, […], 0.1M KCl, 10% glycerol, 1 mM DTT at 40 μl/min. 50 μl fractions were collected; 20 μl samples of each fraction were used for ^3H scintilation counting (10 min/sample in 5 ml EcoscintA) and 10 μl were assayed for DNA-PK kinase activity using the SignaTECT DNA-PK assay system (Promega).
The specificity of IP6 recognition by DNA-PK was assessed by competition trials using inositol hexasulphate (IS6). […] Addition of DNA-PK results in an increase in the mobility of the ^3H-IP6 indicating complex formation. IS6, presented in 10- and 100-fold molar excess have no effect on the amount of ^3H-IP6 bound by DNA-PK.

phosphatases = settings: cited from earlier work

Molecule: O=P(O)(O)OC1[C@H](O)[C@H](OP(=O)(O)O)C(OP(=O)(O)O)[C@H](OP(=O)(O)O)[C@H]1O (stereo partly drawn) [IP4, D-myo-inositol 1,3,4,5-tetrakisphosphate]
- ability to stimulate DNA end-joining (NHEJ) by PC-C [1]: able to stimulate end-joining, but the efficiency of this stimulation was reduced relative to IP6; also recorded: able to stimulate end-joining, though to a lesser extent; also recorded: stimulate NHEJ of DNA

Molecule: O=P(O)(O)O[C@@H]1[C@@H](OP(=O)(O)O)[C@H](OP(=O)(O)O)[C@H](O)[C@H](OP(=O)(O)O)[C@H]1OP(=O)(O)O [IP5, myo-inositol 1,3,4,5,6-pentakisphosphate]
- ability to stimulate DNA end-joining (NHEJ) by PC-C [1]: able to stimulate end-joining, but the efficiency of this stimulation was reduced relative to IP6; also recorded: able to stimulate end-joining, though to a lesser extent; also recorded: stimulate NHEJ of DNA

Molecule: O=P(O)(O)OC1C(OP(=O)(O)O)C(OP(=O)(O)O)C(OP(=O)(O)O)C(OP(=O)(O)O)C1OP(=O)(O)O (stereo not drawn) [IP6, myo-inositol 1,2,3,4,5,6-hexakisphosphate]
- binding by Ku 70/80 heterodimer (Ku 70/80 heterodimer): bind
- binding by Ku 70/80 heterodimer (Ku 70/80 heterodimer; listed as 3H-IP6): binds
- loss in 3H-IP6 binding by Ku (competition) (Ku 70/80 heterodimer; FIG. 13): ~50%
- effect on efficiency of ligation by T4 DNA ligase (T4 DNA ligase): unaffected; also recorded: no effect
- effect on skin cancer development (skin cancer development): reduces initiation of skin cancer development but not its promotion
- low concentration at which end-joining can be stimulated (discussion) [1]: 100 µM
- concentration of maximal stimulation of end-joining by PC-C ([1]; FIG. 4B): 1 µM
- concentration at which end-joining by PC-C is stimulated ([1]; FIG. 4B, commercially available IP6): ~100 nM
- ability to stimulate DNA end-joining (NHEJ) by PC-C [1]: most effective inositol phosphate compound of those tested; also recorded: stimulated end-joining by PC-C; also recorded: stimulate NHEJ of DNA
- concentration that saturates the NHEJ system [1]: 10 µM
- Kd [1]: ~1 µM
- interaction with DNA-PKcs (DNA-PKcs): does not interact
- binding by DNA-PK (DNA-PK): capable of binding; also recorded: binds
- concentration at which it functions as a phosphatase inhibitor (phosphatases): ≥ 10 µM

Molecule: O=P(O)(O)OC1[C@@H](OP(=O)(O)O)[C@H](OP(=O)(O)O)C(OP(=O)(O)OP(=O)(O)O)[C@H](OP(=O)(O)O)[C@H]1OP(=O)(O)O (stereo partly drawn) [IP7, diphosphoinositol pentakisphosphate]
- binding by Ku 70/80 heterodimer (Ku 70/80 heterodimer): bind
- loss in 3H-IP6 binding by Ku (competition) (Ku 70/80 heterodimer; FIG. 13): ~50%
- stimulation of NHEJ by PC-C relative to IP6 [1]: 10 fold
- concentration that saturates the NHEJ system [1]: 1 µM
- Kd [1]: ~100 µM
- binding by DNA-PK (DNA-PK): binds

Molecule: myo-inositol 1,4,5-trisphosphate [IP3]
- effect on 3H-IP6 binding by Ku (competition) (Ku 70/80 heterodimer; 3-fold molar excess of competitor, FIG. 13): no effect
- ability to stimulate DNA end-joining (NHEJ) by PC-C [1]: inhibitory; also recorded: does not stimulate NHEJ
- ability to stimulate DNA end-joining (NHEJ) by PC-C ([1]; listed as myo-inositol 1,4,5-trisphosphate): inhibit end-joining
- binding by DNA-PK (DNA-PK): not
- binding by DNA-PK (DNA-PK; listed as 3H-IP3): not altered by the presence of DNA-PK

Continued, in another order:

- ability to stimulate DNA end-joining (NHEJ) by PC-C [1]: do stimulate NHEJ by PC-C
- stimulation of NHEJ by PC-C relative to IP6 [1]: approximately 10 fold
Molecule: O=P(O)(O)O[C@H]1[C@@H](OP(=O)(O)O)[C@H](OP(=O)(O)O)[C@@H](OP(=O)(O)OP(=O)(O)O)[C@H](OP(=O)(O)O)[C@H]1OP(=O)(O)O [IP7 pp5, myo-5-diphosphoinositol 1,2,3,4,6-pentakisphosphate]

- ability to stimulate DNA end-joining (NHEJ) by PC-C [1]: do stimulate NHEJ by PC-C
- stimulation of NHEJ by PC-C relative to IP6 [1]: approximately 10 fold
Molecule: O=P(O)(O)O[C@H]1[C@@H](OP(=O)(O)O)[C@@H](OP(=O)(O)O)[C@H](OP(=O)(O)OP(=O)(O)O)[C@@H](OP(=O)(O)O)[C@@H]1OP(=O)(O)O [IP7-pp6, myo-6-diphosphoinositol 1,2,3,4,5-pentakisphosphate]

- ability to stimulate DNA end-joining (NHEJ) by PC-C [1]: unable to stimulate end-joining
Molecule: O=S(=O)(O)OC1C(OS(=O)(=O)O)C(OS(=O)(=O)O)C(OS(=O)(=O)O)C(OS(=O)(=O)O)C1OS(=O)(=O)O (stereo not drawn) [IS6, inositol hexasulphate]
- effect on the amount of 3H-IP6 bound by DNA-PK (competition) (DNA-PK; 10- and 100-fold molar excess, FIG. 9): does not compete; also recorded: no effect
